Source: patent US6127397A, “Optically active (R)-(E)-(4-substituted-phenyl-1,3-dithiolan-2-ylidene)-1-imidazolylaceto nitrile derivative, antifungal composition comprising the same, and method for producing the same” (Nihon Nohyaku Co., Ltd., priority 1996, dated 2000)
≈ marks a conversion by molar mass, not a printed value. Where two headings read alike, the source gives them in different places.

What was measured:
Experiment in all cases: In vitro antifungal activity (MIC), SGA agar plate, 27° C., 7 days
[1] = system: Trichophyton mentagrophytes TIMM 2789; assay type: cell-based; conditions: for MIC: Trichophyton mentagrophytes, TIMM2789, 168 h, T. mentagrophytes TIMM 2789, read-out: MIC value against Trichophyton
Method: (§1) In vitro antifungal activity of compounds against dormatophytes
Trichophyton mentagrophytes TIMM 2789
(§2) Preparation of inoculation fungal solution:
(§3) To a strain cultured on Sabouraud's glucose agar (SGA) slant medium at 27° C. for 1 to 2 weeks was added 0.1% (v/v) Tween 80-added sterilized physiological saline solution, followed by rubbing with a platinum spatula. The resulting suspension of conidia was filtered through a sterilized gauze to eliminate mycelium mass. Thereafter, the conidia was counted by an erythrocytometer (Thoma) The suspension of the conidia was diluted with 0.1% (v/v) Tween 80-added sterilized physiological saline solution so as to have a concentration of 1×10^6 conidia/ml to obtain an inoculation fungal solution.
(§4) Each compound was dissolved into dimethyl sulfoxide (DMSO) to prepare a diluent having a […]. The concentration of DMSO in a medium was adjusted to hair 1% (v/v).
(§5) Measurement of antifungal activity:
(§6) A SGA plate medium containing a given amount of a compound (20 ml/dish) was prepared. A loopful of the inoculation fungal solution was applied in the form of a line to each plate medium at a length of about 15 mm, and was allowed to stand for cultivation at 27° C. for 7 days. The minimum inhibitory concentration (MIC) of the compound at which a growth of a microorganism cannot be visually recognized was determined.

[2] = system: Trichophyton mentagrophytes IFO 5811; assay type: cell-based; conditions: for MIC: Trichophyton mentagrophytes, IFO5811, 168 h, T. mentagrophytes IFO 5811, read-out: MIC value against Trichophyton
Method: as §1
Trichophyton mentagrophytes IFO 5811
as §2, §3, §4, §5, §6

[3] = system: Trichophyton rubrum IFO 6204; assay type: cell-based; conditions: for MIC: Trichophyton rubrum, IFO6204, 168 h, T. rubrum IFO 6204, read-out: MIC value against Trichophyton
Method: as §1
Trichophyton rubrunm IFO 6204
as §2, §3, §4, §5, §6

T. rubrum IFO 5805 = assay type: cell-based, Trichophyton rubrum; conditions: for MIC: Trichophyton rubrum, IFO5805, 168 h, read-out: MIC value against Trichophyton

| Structure (SMILES) | MIC [1] [µg/mL] | MIC [2] [µg/mL] | MIC value against Trichophyton ([3]; T. rubrum IFO 6204) [µg/mL] | MIC [3] [µg/mL] | MIC (T. rubrum IFO 5805) [µg/mL] | MIC value against Trichophyton ([1]; T. mentagrophytes TIMM 2789) [µg/mL] | MIC value against Trichophyton ([2]; T. mentagrophytes IFO 5811) [µg/mL] | MIC value against Trichophyton (T. rubrum IFO 5805) [µg/mL] | MIC value against Trichophyton ([1]; T. mentagrophytes TIMM 2789, listed as 6') [µg/mL] | MIC value against Trichophyton ([2]; T. mentagrophytes IFO 5811, listed as 12') [µg/mL] | MIC value against Trichophyton ([3]; T. rubrum IFO 6204, listed as 2') [µg/mL] | MIC value against Trichophyton ([2]; T. mentagrophytes IFO 5811, listed as 8') [µg/mL] | MIC value against Trichophyton (T. rubrum IFO 5805; listed as 8') [µg/mL] |
| --- | --- | --- | --- | --- | --- | --- | --- | --- | --- | --- | --- | --- | --- |
| N#C/C(=C1/SC[C@@H](c2ccc(Cl)cc2)S1)n1ccnc1 [compound 4] | > 0.08 | > 0.08 | > 0.08 | 0.08 (≈ 0.25 µM) | > 0.08 | – | – | – | – | – | – | – | – |
| N#C/C(=C1/SC[C@@H](c2ccc(Br)cc2)S1)n1ccnc1 [compound 3] | > 0.08 | > 0.08 | > 0.08 | 0.08 (≈ 0.22 µM) | > 0.08 | – | – | – | – | – | – | – | – |
| N#C/C(=C1/SC[C@@H](c2ccccc2OC(F)F)S1)n1ccnc1 [compound 9] | 0.64 (≈ 1.82 µM) | 1.28 (≈ 3.64 µM) | 0.64 (≈ 1.82 µM) | 0.32 (≈ 0.911 µM) | 0.32 (≈ 0.911 µM) | 1.28 (≈ 3.64 µM) | 2.56 (≈ 7.29 µM) | 0.64 (≈ 1.82 µM) | – | – | – | – | – |
| N#C/C(=C1/SC[C@@H](c2ccc(F)cc2F)S1)n1ccnc1 [compound 7] | 0.04 (≈ 0.124 µM) | 0.16 (≈ 0.498 µM) | 0.04 (≈ 0.124 µM) | 0.02 (≈ 0.0622 µM) | 0.08 (≈ 0.249 µM) | 0.08 (≈ 0.249 µM) | 0.32 (≈ 0.996 µM) | 0.16 (≈ 0.498 µM) | – | – | – | – | – |
| Cc1ccccc1[C@@H]1CS/C(=C(/C#N)n2ccnc2)S1 [compound 6] | – | 0.32 (≈ 1.07 µM) | – | 0.08 (≈ 0.267 µM) | 0.16 (≈ 0.534 µM) | 0.08 (≈ 0.267 µM) | – | 0.32 (≈ 1.07 µM) | 0.32 (≈ 1.07 µM) | – | – | – | – |
| N#C/C(=C1/SC[C@@H](c2ccc(F)cc2)S1)n1ccnc1 [Compound No. 1, (R)-(E)-[4-(4-fluorophenyl)-1,3-dithicolan-2-ylidene]-1-imidazolylacetonitrile] | 0.32 (≈ 1.05 µM) | 0.64 (≈ 2.11 µM) | 0.32 (≈ 1.05 µM) | 0.16 (≈ 0.527 µM) | 0.32 (≈ 1.05 µM) | 0.64 (≈ 2.11 µM) | > 0.64 | 0.64 (≈ 2.11 µM) | – | – | – | – | – |
| N#C/C(=C1/SC[C@@H](c2cccc(Cl)c2)S1)n1ccnc1 [Compound No. 2] | 0.32 (≈ 1 µM) | 0.64 (≈ 2 µM) | 0.16 (≈ 0.5 µM) | – | 0.64 (≈ 2 µM) | > 0.64 | > 0.64 | > 0.64 | – | – | 0.64 (≈ 2 µM) | – | – |
| N#C/C(=C1/SC[C@@H](c2ccccc2C(F)(F)F)S1)n1ccnc1 [compound 10] | 0.16 (≈ 0.453 µM) | 0.32 (≈ 0.906 µM) | 0.08 (≈ 0.226 µM) | 0.04 (≈ 0.113 µM) | 0.04 (≈ 0.113 µM) | 0.32 (≈ 0.906 µM) | 0.64 (≈ 1.81 µM) | 0.08 (≈ 0.226 µM) | – | – | – | – | – |

Now from value to molecule:

| MIC [1] [µg/mL] | MIC [2] [µg/mL] | MIC value against Trichophyton ([3]; T. rubrum IFO 6204) [µg/mL] | MIC [3] [µg/mL] | MIC (T. rubrum IFO 5805) [µg/mL] | MIC value against Trichophyton ([1]; T. mentagrophytes TIMM 2789) [µg/mL] | MIC value against Trichophyton ([2]; T. mentagrophytes IFO 5811) [µg/mL] | MIC value against Trichophyton (T. rubrum IFO 5805) [µg/mL] | MIC value against Trichophyton ([1]; T. mentagrophytes TIMM 2789, listed as 6') [µg/mL] | MIC value against Trichophyton ([2]; T. mentagrophytes IFO 5811, listed as 12') [µg/mL] | MIC value against Trichophyton ([3]; T. rubrum IFO 6204, listed as 2') [µg/mL] | MIC value against Trichophyton ([2]; T. mentagrophytes IFO 5811, listed as 8') [µg/mL] | MIC value against Trichophyton (T. rubrum IFO 5805; listed as 8') [µg/mL] | Structure (SMILES) |
| --- | --- | --- | --- | --- | --- | --- | --- | --- | --- | --- | --- | --- | --- |
| 0.01 (≈ 0.0251 µM) | 0.02 (≈ 0.0502 µM) | 0.02 (≈ 0.0502 µM) | 0.01 (≈ 0.0251 µM) | 0.01 (≈ 0.0251 µM) | 0.02 (≈ 0.0502 µM) | 0.04 (≈ 0.1 µM) | 0.02 (≈ 0.0502 µM) | – | – | – | – | – | N#C/C(=C1/SC[C@@H](c2ccc(Br)cc2Cl)S1)n1ccnc1 [compound 13, (R)-(E)-[4-(2-chloro-4-bromophenyl) -1,3-dithiolan-2-ylidene]-1-imidazolylacetonitrile] |
| 0.02 (≈ 0.0659 µM) | 0.08 (≈ 0.264 µM) | – | 0.01 (≈ 0.033 µM) | 0.04 (≈ 0.132 µM) | 0.04 (≈ 0.132 µM) | 0.16 (≈ 0.527 µM) | – | – | – | – | – | – | N#C/C(=C1/SC[C@@H](c2ccccc2F)S1)n1ccnc1 [compound 5] |
| 0.02 (≈ 0.0451 µM) | 0.04 (≈ 0.0903 µM) | 0.02 (≈ 0.0451 µM) | 0.01 (≈ 0.0226 µM) | 0.02 (≈ 0.0451 µM) | – | – | 0.04 (≈ 0.0903 µM) | – | – | – | – | – | N#C/C(=C1/SC[C@@H](c2ccc(Br)cc2Br)S1)n1ccnc1 [compound 11] |
| 0.02 (≈ 0.0592 µM) | – | 0.04 (≈ 0.118 µM) | 0.02 (≈ 0.0592 µM) | 0.02 (≈ 0.0592 µM) | 0.04 (≈ 0.118 µM) | 0.04 (≈ 0.118 µM) | 0.04 (≈ 0.118 µM) | – | 0.16 (≈ 0.474 µM) | – | – | – | N#C/C(=C1/SC[C@@H](c2ccc(F)cc2Cl)S1)n1ccnc1 [compound 12] |
| 0.02 (≈ 0.0549 µM) | – | 0.02 (≈ 0.0549 µM) | 0.01 (≈ 0.0275 µM) | – | 0.04 (≈ 0.11 µM) | 0.04 (≈ 0.11 µM) | 0.01 (≈ 0.0275 µM) | – | – | – | 0.16 (≈ 0.439 µM) | 0.04 (≈ 0.11 µM) | N#C/C(=C1/SC[C@@H](c2ccccc2Br)S1)n1ccnc1 [compound 8] |
